The target of one data set is T1, Adenosine receptor A1 (Homo sapiens, UniProt P30542).
T1 sequence (P30542 whole entry): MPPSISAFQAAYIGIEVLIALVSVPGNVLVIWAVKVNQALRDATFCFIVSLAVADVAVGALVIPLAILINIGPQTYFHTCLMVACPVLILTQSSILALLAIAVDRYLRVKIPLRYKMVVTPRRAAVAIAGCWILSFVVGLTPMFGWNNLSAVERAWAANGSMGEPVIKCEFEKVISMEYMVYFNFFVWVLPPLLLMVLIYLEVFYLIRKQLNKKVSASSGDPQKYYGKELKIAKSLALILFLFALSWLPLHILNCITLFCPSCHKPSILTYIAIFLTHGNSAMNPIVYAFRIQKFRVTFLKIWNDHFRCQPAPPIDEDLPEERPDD
Briefly: Displacement of [3H]CCPA from recombinant human adenosine A1 receptor expressed in CHO cell membrane after 3 hrs by microbeta scintillation counting method. Type of data set: cell membranes.

Data set [1] addresses T2, Adenosine receptor A2a (Homo sapiens, UniProt P29274). Briefly: Displacement of [3H]NECA from recombinant human adenosine A2A receptor expressed in CHO cell membrane after 3 hrs by microbeta scintillation counting method. Format: cell membranes. (In general: In a radioligand displacement assay an active substance lowers the binding of a labelled ligand.)
The target of data set [2] is T2, Adenosine receptor A2a. Briefly: Partial agonist activity at recombinant human adenosine A2A receptor expressed in CHOK1 cell membrane assessed as adenylyl cyclase activity at 100 uM incubated for 20 mins in presence of [alpha32P]ATP relative to NECA. Format: functional, cell-based. The following applies: CHO-K1.
For a further data set, the target named is T3, Adenosine receptor A2b (Homo sapiens, UniProt P29275).
T3 sequence (P29275 whole entry): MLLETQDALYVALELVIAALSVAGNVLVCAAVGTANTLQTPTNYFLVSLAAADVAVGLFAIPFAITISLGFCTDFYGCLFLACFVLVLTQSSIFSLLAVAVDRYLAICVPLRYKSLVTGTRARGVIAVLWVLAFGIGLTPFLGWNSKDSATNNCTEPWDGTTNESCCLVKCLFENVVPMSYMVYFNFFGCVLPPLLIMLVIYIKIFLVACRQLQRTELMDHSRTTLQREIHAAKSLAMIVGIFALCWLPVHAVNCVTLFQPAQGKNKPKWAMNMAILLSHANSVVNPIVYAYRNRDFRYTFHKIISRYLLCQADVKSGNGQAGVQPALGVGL
The data set can be described thus: Antagonist activity at recombinant human adenosine A2B receptor expressed in CHOK1 cell membrane assessed as inhibition of NECA-stimulated adenylyl cyclase activity incubated for 20 mins in presence of [alpha32P]ATP. Format: functional, cell-based, CHO-K1.

The test system of data set [3] is CHO. The data set can be described thus: Selectivity ratio of Ki for recombinant human adenosine A1 receptor expressed in CHO cell membrane to Ki for recombinant human adenosine A2A receptor expressed in CHO cell membrane. Format: cell-based.
In data set [4] the test system is CHO. Briefly: Selectivity ratio of Ki for recombinant human adenosine A3 receptor expressed in CHO cell membrane to Ki for recombinant human adenosine A2A receptor expressed in CHO cell membrane. Format: cell-based.
Data set [5] is described as follows: Thermodynamic equilibrium solubility of compound in water at 1 to 300 ug after overnight incubation by microplate reader analysis. Format: physicochemical. The following applies: read-out: Therm_solubility.
Data set [6] can be described thus: Thermodynamic equilibrium solubility of compound in phosphate buffered saline at 1 to 300 ug after overnight incubation by microplate reader analysis. Type of data set: physicochemical. The following applies: read-out: Therm_solubility.
Data set [7] is described as follows: Thermodynamic equilibrium solubility of compound in simulated gastric fluid at 1 to 300 ug after overnight incubation by microplate reader analysis. Format: ADME. The following applies: read-out: Therm_solubility.
Another data set deals with T4, Adenosine receptor A3 (Homo sapiens, UniProt P0DMS8).
T4 sequence (P0DMS8 whole entry): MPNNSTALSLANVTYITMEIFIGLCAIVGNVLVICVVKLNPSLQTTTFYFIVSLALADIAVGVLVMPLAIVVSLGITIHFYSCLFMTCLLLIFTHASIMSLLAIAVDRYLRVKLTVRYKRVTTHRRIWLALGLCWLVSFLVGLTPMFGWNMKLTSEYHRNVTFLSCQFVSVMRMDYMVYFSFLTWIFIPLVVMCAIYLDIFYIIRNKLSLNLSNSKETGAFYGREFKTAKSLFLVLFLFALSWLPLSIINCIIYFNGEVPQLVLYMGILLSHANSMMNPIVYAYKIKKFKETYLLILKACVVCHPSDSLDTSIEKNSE
Briefly: biochemical.

Data set [8] deals with T2, Adenosine receptor A2a. The data set can be described thus: Partial agonist activity at recombinant human adenosine A2A receptor expressed in CHOK1 cell membrane assessed as adenylyl cyclase activity at 1 to 100 uM incubated for 20 mins in presence of [alpha32P]ATP relative to NECA. Format: functional, cell-based. The following applies: CHO-K1.

Broadly, the Ki is a dissociation constant, usually derived from enzyme kinetics or from competition with a known ligand.

Structures are written as SMILES. ≈ marks a conversion by molar mass, not a printed value.

T2 sequence (P29274 whole entry): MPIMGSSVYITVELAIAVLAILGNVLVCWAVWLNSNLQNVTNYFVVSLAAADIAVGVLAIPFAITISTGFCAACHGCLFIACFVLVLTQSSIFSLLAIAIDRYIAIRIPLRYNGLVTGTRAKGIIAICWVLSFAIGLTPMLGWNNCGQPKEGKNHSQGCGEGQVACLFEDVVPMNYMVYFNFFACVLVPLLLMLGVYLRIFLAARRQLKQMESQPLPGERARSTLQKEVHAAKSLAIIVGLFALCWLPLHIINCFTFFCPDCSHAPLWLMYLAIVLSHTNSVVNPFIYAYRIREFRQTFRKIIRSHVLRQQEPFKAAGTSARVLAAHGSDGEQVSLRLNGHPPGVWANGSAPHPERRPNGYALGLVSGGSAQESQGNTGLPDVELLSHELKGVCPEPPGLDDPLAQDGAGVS
Description for Adenosine receptor A3: Displacement of [3H]HEMADO from recombinant human adenosine A3 receptor expressed in CHO cell membrane after 3 hrs by microbeta scintillation counting method

Regarding `OC[C@@H]1CCCN1c1ncnc2sc(Nc3ccccc3)nc12`, the Ki was 555 nM on Adenosine receptor A1, 200 nM at Adenosine receptor A2a [1], over 10000 nM at Adenosine receptor A2b and 978 nM at Adenosine receptor A3. Also, the Efficacy at Adenosine receptor A2a [2] stood at 50%. In addition, the Ratio Ki with CHO [3] and with CHO [4] was 3 each time. Further, the solubility thermodynamic in data set [5] was 4300 µg/mL (≈ 13.1 mM); in data set [6], 4800 µg/mL (≈ 14.7 mM); in [7] it was 3500 µg/mL (≈ 10.7 mM).
Take `Cc1ccc(Nc2nc3c(N4CCCC4)ncnc3s2)cc1`: the inhibitory constant (Ki) at Adenosine receptor A1 is over 100000 nM; on Adenosine receptor A2a [1], 974 nM; on Adenosine receptor A2b, over 10000 nM; on Adenosine receptor A3, 563 nM. Moreover, the Efficacy on Adenosine receptor A2a [8] came to 10%. Further, the solubility thermodynamic in [5] was over 150 µg/mL.
On to `OC[C@@H]1CCCN1c1ncnc2sc(Nc3cccc(Br)c3)nc12`, for which the Ki at Adenosine receptor A1 was 530 nM; at Adenosine receptor A2a [1], 153 nM; at Adenosine receptor A2b, over 10000 nM; at Adenosine receptor A3 it was 1070 nM. In addition, the Efficacy on Adenosine receptor A2a [2] amounted to 50%. In addition, the Ratio Ki in the data set with CHO [3] and in the data set on CHO [4] was 3 in each case. In addition, in [5], the solubility thermodynamic was 160 µg/mL (≈ 0.394 mM).

These data come from ChEMBL document CHEMBL3826933, “Discovery of 7-(Prolinol-N-yl)-2-phenylamino-thiazolo[5,4-d]pyrimidines as Novel Non-Nucleoside Partial Agonists for the A2A Adenosine Receptor: Prediction from Molecular Modeling” (J Med Chem, 2016).
